{"source": "patent US20210107874A1", "about": "“PHARMACEUTICAL FORMULATION OF CROTONYLAMINOPYRIDINE SALT” (priority 2017, published 2021)", "key": {"[1]": {"assay": "Solubility of synthesized tartrate salt and free base of compound 4", "assay_type": "physicochemical", "settings": "free base; read-out: solubility", "protocol": "The free base of compound 4 has a solubility of 0.8 mg/ml"}, "[2]": {"assay": "Solubility of salts of compound 4: compound added in portions to acid in water until no clear solution", "assay_type": "physicochemical", "settings": "for Dissolved g of 4 / pH: clear solution", "protocol": "A defined amount of an acid (1.0 g) was weighed into a flask and dissolved in water (10 ml). […] The pH value was measured after each addition.\nThus 8 g of compound 4 in 10 ml of water can be dissolved."}, "[3]": {"assay": "Stability tests of solutions of compound 4 with equimolar acids in water", "assay_type": "physicochemical", "settings": "for solubility: water with equimolar acid, thermodynamic from solid", "protocol": "Equimolar amounts of compound 4 and acids were diluted with water: Water was added until all residues were dissolved. 200, 100 and 50 mg of compound 4 was used, each amount was combined with each acid of the following list. The solutions were equilibrated at room temperature and then held for 7 days at room temperature and thereafter 7 days at 8° C."}, "[4]": {"assay": "PK studies of formulations, plasma by HPLC-MS/MS", "assay_type": "in vivo", "settings": "SC, Cattle", "protocol": "The following formulations were prepared and administered to animals. Blood samples were collected at pre-defined time points and the amount of compound present in plasma at the time of sampling was determined by HPLC-MS/MS. Pharmacokinetic parameters were then calculated: Cmax, Tmax, Tlast, AUC. [table]"}, "[5]": {"settings": "0.5 g Acetic acid in 10 ml water"}, "[6]": {"settings": "1.0 g Citric acid in 10 ml water"}, "[7]": {"settings": "1.0 g Tartaric acid in 10 ml water"}, "[8]": {"settings": "Form O62.5 (FormO type: L-tartaric acid, NaOH to pH 4.4, water), 1.25 mg/kg"}}, "note": "Values joined by “and” are separate entries in the source; they are usually repeats but may differ in a detail not shown here. Identical values can stand only once.", "data": [{"smiles": "CCOc1cc(NCCNC(=O)/C=C/C(F)(F)F)ccn1", "note": "[Compound 4, (E)-N-[2-[(2-ethoxy-4-pyridyl)amino]ethyl]-4,4,4-trifluoro-but-2-enamide]", "values": [{"measurement": "solubility", "setting": "[1]", "value": 0.8, "unit": "mg/mL"}, {"measurement": "Dissolved g of 4", "setting": "[2]; [5]", "value": 1, "unit": "g"}, {"measurement": "pH", "setting": "[2]; [5]", "value": 4.6}, {"measurement": "Dissolved g of 4", "setting": "[2]; [6]", "value": 2.5, "unit": "g"}, {"measurement": "pH", "setting": "[2]; [6]", "value": 4.4}, {"measurement": "Dissolved g of 4", "setting": "[2]; 1.0 g Maleic acid in 10 ml water", "value": "<0.1", "unit": "g"}, {"measurement": "Dissolved g of 4", "setting": "[2]; [7]", "value": 3.5, "unit": "g"}, {"measurement": "pH", "setting": "[2]; [7]", "value": 4.2}, {"measurement": "appearance of solution", "setting": "[2]; 2 g compound 4 and 1 g tartaric acid in 2.5 ml water", "value": "clear solution"}, {"measurement": "amount that can be dissolved in 10 ml of water", "setting": "[2]; with tartaric acid, scaled from 2 g in 2.5 ml", "value": 8, "unit": "g"}, {"measurement": "pH", "setting": "[3]; equimolar Citric acid in water", "value": 3.41}, {"measurement": "pH", "setting": "[3]; equimolar D-glucoronic acid in water", "value": 4.15}, {"measurement": "pH", "setting": "[3]; equimolar Ethanesulfonic acid in water", "value": 1.23}, {"measurement": "pH", "setting": "[3]; equimolar Fumaric acid in water", "value": 3.74}, {"measurement": "pH", "setting": "[3]; equimolar Hydrochloric acid in water", "value": 1.15}, {"measurement": "pH", "setting": "[3]; equimolar L-lactic acid in water", "value": 4.28}, {"measurement": "pH", "setting": "[3]; equimolar Methanesulfonic acid in water", "value": 1.28}, {"measurement": "pH", "setting": "[3]; equimolar Oxalic acid in water", "value": 2.14}, {"measurement": "pH", "setting": "[3]; equimolar Sulfuric acid in water", "value": 0.06}, {"measurement": "pH", "setting": "[3]; equimolar Tartaric acid in water", "value": 3.35}, {"measurement": "solubility", "setting": "[3]; pH 0.06, water, equimolar Sulfuric acid in water", "value": "> 200", "unit": "mg/mL"}, {"measurement": "solubility", "setting": "[3]; pH 1.15, water, equimolar Hydrochloric acid in water", "value": "> 200", "unit": "mg/mL"}, {"measurement": "solubility", "setting": "[3]; pH 1.23, water, equimolar Ethanesulfonic acid in water", "value": "> 200", "unit": "mg/mL"}, {"measurement": "solubility", "setting": "[3]; pH 1.28, water, equimolar Methanesulfonic acid in water", "value": "> 200", "unit": "mg/mL"}, {"measurement": "solubility", "setting": "[3]; pH 2.14, water, equimolar Oxalic acid in water", "value": "> 200", "unit": "mg/mL"}, {"measurement": "solubility", "setting": "[3]; water, equimolar Citric acid in water", "value": "> 200", "unit": "mg/mL"}, {"measurement": "solubility", "setting": "[3]; water, equimolar D-glucoronic acid in water", "value": "> 100", "unit": "mg/mL"}, {"measurement": "solubility", "setting": "[3]; water, equimolar Fumaric acid in water", "value": "> 200", "unit": "mg/mL"}, {"measurement": "solubility", "setting": "[3]; water, equimolar L-lactic acid in water", "value": "> 100", "unit": "mg/mL"}, {"measurement": "solubility", "setting": "[3]; water, equimolar Phosphoric acid in water", "value": "> 100", "unit": "mg/mL"}, {"measurement": "solubility", "setting": "[3]; water, equimolar Tartaric acid in water", "value": "> 200", "unit": "mg/mL"}, {"measurement": "solubility", "setting": "[3]; water, equimolar acetic acid in water", "value": "< 50", "unit": "mg/mL"}, {"measurement": "solubility", "setting": "[3]; water, equimolar benzenesulfonic acid in water", "value": "< 50", "unit": "mg/mL"}, {"measurement": "solubility", "setting": "[3]; water, equimolar benzoic acid in water", "value": "< 50", "unit": "mg/mL"}, {"measurement": "solubility", "setting": "[3]; water, equimolar ethanedisulfonic acid in water", "value": "< 50", "unit": "mg/mL"}, {"measurement": "solubility", "setting": "[3]; water, equimolar isethionic acid in water", "value": "> 200", "unit": "mg/mL"}, {"measurement": "solubility", "setting": "[3]; water, equimolar maleic acid in water", "value": "< 50", "unit": "mg/mL"}, {"measurement": "solubility", "setting": "[3]; water, equimolar malonic acid in water", "value": "< 50", "unit": "mg/mL"}, {"measurement": "solubility", "setting": "[3]; water, equimolar p-toluenesulfonic acid in water", "value": "< 50", "unit": "mg/mL"}, {"measurement": "solubility", "setting": "[3]; water, equimolar saccharin in water", "value": "< 50", "unit": "mg/mL"}, {"measurement": "solubility", "setting": "[3]; water, equimolar succinic acid in water", "value": "< 50", "unit": "mg/mL"}, {"measurement": "Tlast", "setting": "[4]; Form A50 (NMP, propylene glycol, water), 1.25 mg/kg", "value": 6.5, "unit": "h"}, {"measurement": "Tlast", "setting": "[4]; Form B62.5 (dimethyl acetamide, propylene glycol, water), 1.25 mg/kg", "value": 5.33, "unit": "h"}, {"measurement": "AUC", "setting": "[4]; [8]", "value": 0.372, "unit": "µg·h/mL"}, {"measurement": "Cmax", "setting": "[4]; [8]", "value": 0.428, "unit": "µg/mL"}, {"measurement": "Tlast", "setting": "[4]; [8]", "value": "4 h and 3 h"}, {"measurement": "Tmax", "setting": "[4]; [8]", "value": 18.6, "unit": "min"}, {"measurement": "Tlast", "setting": "[4]; FormC62.5 (propylene glycol, ethanol, Transcutol P), 1.25 mg/kg", "value": 10.7, "unit": "h"}, {"measurement": "Tlast", "setting": "[4]; FormD62.5 (PEG 300, ethanol, Transcutol P), 1.25 mg/kg", "value": 4, "unit": "h"}, {"measurement": "Tlast", "setting": "[4]; FormE62.5 (polyethylene glycol 300, ethyl alcohol 96%, water), 1.25 mg/kg", "value": 5, "unit": "h"}, {"measurement": "Tlast", "setting": "[4]; FormF62.5 (polyethylene glycol, 1-octanol, 2-pyrrolidone), 1.25 mg/kg", "value": 8, "unit": "h"}, {"measurement": "Tlast", "setting": "[4]; FormG62.5 (benzyl alcohol, ethyl alcohol 96%, polyethylene glycol 300), 1.25 mg/kg", "value": 5.33, "unit": "h"}, {"measurement": "Tlast", "setting": "[4]; FormH62.5 (DMA, DMSO, 2-pyrrolidone), 1.25 mg/kg", "value": 4, "unit": "h"}, {"measurement": "Tlast", "setting": "[4]; FormJ62.5 (DMSO, 2-pyrrolidone, ethyl lactate), 1.25 mg/kg", "value": 4, "unit": "h"}, {"measurement": "Tlast", "setting": "[4]; FormK62.5 (2-pyrrolidone, Transcutol P, ethyl lactate), 1.25 mg/kg", "value": 4, "unit": "h"}, {"measurement": "Tlast", "setting": "[4]; FormL50 (DMA, propylene glycol, water), 1.25 mg/kg", "value": 4, "unit": "h"}, {"measurement": "Tlast", "setting": "[4]; FormM62.5 (L-tartaric acid, sodium hydroxide up to pH 4.6, water), 1.25 mg/kg", "value": 3.33, "unit": "h"}, {"measurement": "Tlast", "setting": "[4]; FormO60 (FormO type: L-tartaric acid, NaOH to pH 4.4, water), 1 mg/kg", "value": 2.67, "unit": "h"}, {"measurement": "Tlast", "setting": "[4]; FormP62.5 (L-tartaric acid, 2-pyrrolidone, NaOH, water), 1.25 mg/kg", "value": 6.67, "unit": "h"}, {"measurement": "Tlast", "setting": "[4]; FormQ62.5 (L-tartaric acid, sodium carboxymethyl cellulose, NaOH up to pH 4.3, water), 1.25 mg/kg", "value": 4, "unit": "h"}]}]}
